The target of the experiment is T1, Myeloperoxidase (MPO) (Homo sapiens, UniProt P05164).
T1 construct: purchased Biodesign Int
T1 sequence (P05164 49-745): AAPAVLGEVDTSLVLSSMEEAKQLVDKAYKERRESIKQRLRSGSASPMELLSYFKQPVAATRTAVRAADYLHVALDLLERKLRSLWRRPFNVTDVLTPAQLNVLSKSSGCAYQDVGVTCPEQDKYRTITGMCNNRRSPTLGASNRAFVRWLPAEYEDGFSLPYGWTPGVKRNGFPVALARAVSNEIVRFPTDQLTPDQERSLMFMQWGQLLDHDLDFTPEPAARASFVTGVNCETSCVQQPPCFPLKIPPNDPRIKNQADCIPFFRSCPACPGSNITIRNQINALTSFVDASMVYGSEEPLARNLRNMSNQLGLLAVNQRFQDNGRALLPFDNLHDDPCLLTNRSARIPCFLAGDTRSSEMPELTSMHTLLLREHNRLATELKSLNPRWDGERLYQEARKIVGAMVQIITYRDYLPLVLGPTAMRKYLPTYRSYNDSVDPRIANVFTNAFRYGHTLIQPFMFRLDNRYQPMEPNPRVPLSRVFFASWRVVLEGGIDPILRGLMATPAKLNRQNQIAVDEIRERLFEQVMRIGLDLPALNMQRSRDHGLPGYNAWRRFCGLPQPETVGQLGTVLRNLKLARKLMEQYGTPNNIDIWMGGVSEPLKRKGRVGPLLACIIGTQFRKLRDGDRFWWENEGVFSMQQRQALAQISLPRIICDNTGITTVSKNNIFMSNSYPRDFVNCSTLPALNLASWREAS
Put plainly: MPO-mediated oligomerization of 2Gd^3+: UV, HPLC, MALDI-MS, relaxivity. Format: biochemical. The note with it: for degree of polymerization (N) of oligomerized products: MPO/H2O2, MALDI-MS. As to the method:
Myeloperoxidase was purchased from Biodesign Int. and was used as received, activity was measured as described by Klebanoff, S. J.; Waltersdorph, A. M.; Rosen, H.; Methods in Enzymology. Vol. 105, p 399-403.
We incubated 0.6 mL of a solution 10^4M of Gd^3+2 at pH=7.2/25° with 4 units of MPO and an excess of H2O2 for 90 minutes. […] The intensity of these new bands increased for a period of about 90 min, and that 90% of the change could be observed within first 30 min. The reaction was quenched by freezing the mixture in liquid N2. […] However, higher N value species were undetectable.
Four solutions with concentrations ranging from 10^−4 to 10^−3 where separately incubated as above and the T1 value were measured at 0.47T using standard inverse recovery sequence. The fitting of these values, following published procedures, yielded a r1=5.9 mM^−1s^−1. […] For longer incubation times, no linear correlation of T1 from Gd concentration could be obtained due to the precipitation of CA at millimolar concentrations. Lower relaxivity increase (32%) was observed when the activity of the enzyme was lowered to 1 unit.
Further characterization of r1 effects modulated by MPO was accomplished by using a 4×2 well plate array of samples prepared as shown in FIG. 14: Row 1 contained 0.3 mL Gd-DTPA-diSer solutions at pH 7.2; Row 2 included the samples the same concentrations and 4 units of MPO and 2 μL of a 3% of aqueous H2O2. Fitting the T1 values of the wells in row 1 afforded r1 of 4.7 mM^−1s^−1. […] In this case, we observed precipitation of insoluble products during the MRI scan. The fitting of the values measured in other 3 wells, the relaxivity was 5.5 mM^−1s^−1.
Indium-111 labeled bis-5-HT-DTPA was prepared by using transchelation from ^111In-oxiquinoline complex (oxine, Cardinal Health, Cleveland Ohio). To prepare ^111In-bis-5-HT-DTPA, 50 μg of bis-5-HT-DTPA (1 mg/ml) were mixed with 1 mCi ^111In-oxiquinoline solution in 0.7-1.0 ml saline and incubated for 1 hour under argon. Transchelation and purity was controlled by HPLC (Discovery C-18 column, 25×3 mm, Supelco) using 0-55% gradient of acetonitrile in water. Human myeloperoxidase was obtained from BioDesign, Inc., and its activity determined by using the method described by Klebanoff. To determine if the Gd compounds were substrates for human MPO, MPO-mediated oligomerization was monitored by size exclusion HPLC and by measuring ΔT1 on a Bruker Minispec 120 NMR spectrometer using a standard inversion recovery sequence. The degree of oligomerization was determined by mass spectroscopy (MALDI-MS).

One compound from patent US8153784B2, “Imaging of enzyme activity” (The General Hospital Corporation, priority 2004, dated 2012) can be followed below.

Turning to `O=C([O-])CN(CCN(CC(=O)[O-])CC(=O)NCCc1c[nH]c2ccc(O)cc12)CCN(CC(=O)[O-])CC(=O)NCCc1c[nH]c2ccc(O)cc12.[Gd+3]` [2Gd^3+], under “0.47T, 4 units of MPO”, the “increase of r1 compared with the initial substrate” value is 37%. The r1 (0.47T, 4 units of MPO, H2O2) came to 5.9 mM⁻¹ s⁻¹. The relaxivity increase (0.47T, enzyme activity lowered to 1 unit) amounted to 32%. Besides, the “fraction of the UV absorbance change observed within first 30 min” value (10^4M, pH=7.2/25°, 4 units of MPO, excess H2O2) is reported as 90%. This compound had a conversion (HPLC after addition of MPO) of 99.5%. Further, the “degree of polymerization (N) of oligomerized products” value (listed as Gd^3+2) is on record as 1-4 and the “degree of polymerization (N) of oligomerized products” value (listed as bis-5-HT-DTPA(Gd)) is listed as “up to 5”. For the setting “well plate at 1.5T, 4 units of MPO and H2O2, fitting of 3 wells”, this compound returned a relaxivity of 5.5 mM⁻¹ s⁻¹. Also, the “minimum increase of relaxivity” value (well plate at 1.5T, range 10^−4 to 5 10^−4) is not below 17%.
